Measured values taken from patent publication US20140142333A1, “NOVEL ANILINE DERIVATIVES AND USE THEREOF” (NEOMICS Co, Ltd., priority 2011, published 2014).

What was measured:
[1] = biological target: T1, AIMP2-DX2 (Homo sapiens, UniProt Q13155); experiment: luciferase assay of pGL-DX-2 transfected A549 cells; conditions: luciferase activity 4 hours after compound treatment; N.C (DMSO) 20089; lower = inhibition
T1 sequence (Q13155 1-251 isoform Q13155-2): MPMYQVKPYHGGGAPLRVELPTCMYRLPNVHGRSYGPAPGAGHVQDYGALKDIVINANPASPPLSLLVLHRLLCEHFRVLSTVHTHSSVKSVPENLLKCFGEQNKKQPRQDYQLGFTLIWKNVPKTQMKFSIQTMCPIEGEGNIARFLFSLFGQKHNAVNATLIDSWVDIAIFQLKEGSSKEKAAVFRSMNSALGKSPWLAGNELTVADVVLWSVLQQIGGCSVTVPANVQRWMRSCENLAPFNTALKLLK

[2] = biological target: T1, AIMP2-DX2; experiment: luciferase assay of pGL-DX-2 transfected H460 cells; conditions: luciferase activity 4 hours after compound treatment; N.C (DMSO) 8627; lower = inhibition
Method: In order to screen for a compound specifically inhibiting the activity of AIMP2-DX2, from a compound library bought from ChemDive (US), the inventors' transfected lung cancer cell line, H460, with pGL2-DX2 (see FIG. 2). After culturing the cell line for 24 hours, they treated it with a compound. Then, after further culturing for 4 hours, luciferase activity was measured through a luciferase assay kit according to a manufacturer protocol (Promega, US), by using a luminometer.
After further culturing for 4 hours, luciferase activity was measured.

AIMP2-DX2 activity in A549 cells [1] | AIMP2-DX2 activity in H460 cells [2] | Structure (SMILES)
9643 | 7427 | Cc1ccc(NC(=O)/C=C\C(=O)Nc2ccc(F)cc2C)cc1C [compound 5, N1-(3,4-dimethylphenyl)-N4-(4-fluoro-2-methylphenyl)maleamide]
18631 | 5403 | CCOC(=O)C(C)C(=O)Nc1ccc(O)cc1Cl (stereo not drawn) [compound 33, ethyl 3-[(2-chloro-4-hydroxyphenyl)amino]-2-methyl-3-oxopropanoate]
6871 | 7511 | CCCCc1cccc(NC(=O)/C=C\C(=O)Nc2ccc(C)c(C)c2)c1 [compound 16, N1-(3-butylphenyl)-N4-(3,4-dimethylphenyl)maleamide]
6786 | 7064 | Cc1cc(C)cc(NC(=O)/C=C\C(=O)O)c1 [compound 9, (Z)-4-[(3,5-dimethylphenyl)amino]-4-oxobut-2-enoic acid]
8049 | 7855 | O=C(O)/C=C\C(=O)Nc1cc(Cl)cc(Cl)c1 [compound 13, (Z)-4-[(3,5-dichlorophenyl)amino]-4-oxobut-2-enoic acid]
5586 | 6029 | Cc1cc(F)ccc1NC(=O)/C=C\C(=O)Nc1ccc(F)cc1C [compound 27, N1,N4-bis(4-fluoro-2-methylphenyl)maleamide]
6975 | 5718 | Cc1ccc(NC(=O)/C=C\C(=O)Nc2ccc(Br)cc2)cc1C [compound 17, N1-(4-bromophenyl)-N4-(3,4-dimethylphenyl)maleamide]
14072 | 7292 | Cc1cccc(NC(=O)/C=C/C(=O)Nc2cccc(C)c2)c1 [compound 2, N1,N4-di-m-tolylfumaramide]
5352 | 6391 | O=C(/C=C/C(=O)Nc1ccc(Cl)c(Cl)c1)Nc1ccc(Cl)c(Cl)c1 [compound 23, N1,N4-bis(3,4-dichlorophenyl)fumaramide]
5152 | 6085 | COc1ccc(NC(=O)/C=C\C(=O)Nc2ccc(OC)cc2)cc1 [compound 25, N1,N4-bis(4-methoxyphenyl) maleamide]
9605 | 8189 | Cc1cccc(NC(=O)/C=C\C(=O)Nc2cccc(C)c2)c1 [compound 4, N1,N4-di-m-tolylmaleamide]
240 | 230 | Cc1cc(Cl)cc(Cl)c1NC(=O)/C=C\C(=O)O [compound 14, (Z)-4-[(2,4-dichloro-6-methylphenyl)amino]-4-oxobut-2-enoic acid]
5812 | 7094 | Cc1ccc(NC(=O)/C=C/C(=O)Nc2ccc(C)c(F)c2)cc1F [compound 24, N1,N4-bis(3-fluoro-4-methylphenyl)fumaramide]
6691 | 7722 | COc1cccc(NC(=O)C(C)C(=O)Nc2cc(C)ccc2C)c1 (stereo not drawn) [compound 28, N1-(2,5-dimethylphenyl)-N3-(3-methoxyphenyl)-2-methylmalonamide]
6446 | 7639 | Cc1ccc(NC(=O)/C=C\C(=O)O)cc1F [compound 20, (Z)-4-[(3-fluoro-4-methylphenyl)amino]-4-oxobut-2-enoic acid]
5771 | 6346 | CCOC(=O)C(C)C(=O)Nc1ccc2cc3ccccc3cc2c1 (stereo not drawn) [compound 31, ethyl 3-(anthracen-2-ylamino)-2-methyl-3-oxopropanoate]
3978 | 3715 | CCc1cccc(NC(=O)/C=C\C(=O)Nc2ccc(F)cc2)c1 [compound 19, N1-(3-ethylphenyl)-N4-(4-fluorophenyl)maleamide]

AIMP2-DX2 activity in A549 cells [1] | AIMP2-DX2 activity in H460 cells [2] | Structure (SMILES)
5647 | 6377 | O=C(/C=C/C(=O)Nc1ccc(Br)cc1)Nc1ccc(Br)cc1 [compound 22, N1,N4-bis(4-bromophenyl) fumaramide]
6705 | 7648 | Cc1ccc(C)c(NC(=O)/C=C\C(=O)O)c1 [compound 8, (Z)-4-[(2,5-dimethylphenyl)amino]-4-oxobut-2-enoic acid]
5662 | 5916 | Cc1cccc(NC(=O)/C=C\C(=O)Nc2ccc(F)cc2)c1 [compound 29, N1-(4-fluorophenyl)-N4-(m-tolyl)maleamide]
6328 | 7143 | Cc1cccc(NC(=O)/C=C\C(=O)O)c1 [compound 11, (Z)-4-oxo-4-(m-tolylamino) but-2-enoic acid]
7285 | 6061 | O=C(/C=C/C(=O)Nc1cc(Cl)cc(Cl)c1)Nc1cc(Cl)cc(Cl)c1 [compound 21, N1,N4-bis(3,5-dichlorophenyl)fumaramide]
19889 | 4848 | CCOC(=O)CC(=O)Nc1ccc(O)cc1Cl [compound 32, ethyl 3-[(2-chloro-4-hydroxyphenyl)amino]-3-oxopropanoate]
12399 | 8045 | CCCCc1ccc(NC(=O)/C=C\C(=O)O)cc1 [compound 10, (Z)-4-[(4-butylphenyl)amino]-4-oxobut-2-enoic acid]
6525 | 6428 | Cc1ccc(NC(=O)/C=C\C(=O)Nc2ccc(F)cc2)cc1F [compound 26, N1-(3-fluoro-4-methylphenyl)-N4-(4-fluorophenyl)maleamide]
4239 | 3246 | COc1cccc(NC(=O)/C=C\C(=O)Nc2ccc(F)cc2)c1 [compound 18, N1-(4-fluorophenyl)-N4-(3-methoxyphenyl)maleamide]
7291 | 7167 | COc1cccc(NC(=O)C(C)C(=O)Nc2cc(C)cc(C)c2)c1 (stereo not drawn) [compound 30, N1-(3,5-dimethylphenyl)-N3-(3-methoxyphenyl)-2-methylmalonamide]
6981 | 8621 | Cc1cc(C)cc(NC(=O)/C=C\C(=O)Nc2ccc(C)c(C)c2)c1 [compound 15, N1-(3,4-dimethylphenyl)-N4-(3,5-dimethylphenyl)maleamide]
8268 | 5019 | Cc1ccc(NC(=O)/C=C\C(=O)Nc2cc(Cl)cc(Cl)c2)cc1C [compound 7, N1-(3,5-dichlorophenyl)-N4-(3,4-dimethylphenyl)maleamide]
14179 | 7101 | Cc1ccc(NC(=O)/C=C/C(=O)Nc2ccc(C)c(C)c2)cc1C [compound 1, N1,N4-bis(3,4-dimethylphenyl)fumaramide]
10551 | 8901 | Cc1ccc(NC(=O)/C=C\C(=O)Nc2ccc(C)c(F)c2)cc1C [compound 6, N1-(3,4-dimethylphenyl)-N4-(3-fluoro-4-methylphenyl)maleamide]
7937 | 7031 | O=C(O)/C=C\C(=O)Nc1ccc(F)cc1 [compound 12, (Z)-4-[(4-fluorophenyl)amino]-4-oxobut-2-enoic acid]
10043 | 7749 | Cc1ccc(C)c(NC(=O)/C=C\C(=O)Nc2ccc(C)c(C)c2)c1 [compound 3, N1-(2,5-dimethylphenyl)-N4-(3,4-dimethylphenyl)maleamide]
